Laboratory results from patent US5767278A, “Telomerase inhibitors” (Geron Corporation, priority 1995, dated 1998).

How the values were obtained:
telomerase = target: T1, telomerase (Homo sapiens, UniProt O14746); test: Inhibition of telomerase activity (IC50); type: biochemical
T1 construct: placing cells, tissues, or preferably a cellular extract or other preparation containing telomerase in contact with; endogenous in cells
Description: One method used to identify compounds of the invention that inhibit telomerase activity involves placing cells, tissues, or preferably a cellular extract or other preparation containing telomerase in contact with several known concentrations of a test compound in a buffer compatible with telomerase activity. […] Other methods for determining the inhibitory concentration of a compound of the invention against telomerase can be employed as will be apparent to those of skill in the art based on the disclosure herein.
With the above-described methods, IC50 values for several of the compounds of the present invention were determined. The values reported in Table 3 below are only approximate values; more exact IC50 values can be obtained by repetitive testing.

[1] = test system: telomerase-positive cells; test: Telomere length in telomerase-positive cells treated with Compound XIV (one uncontrolled experiment); type: cell-based; settings: dosing period of about 48 hours
Procedure: Colonies of the tumor cell lines, such as the ovarian tumor cell lines OVCAR-5 and SK-OV-3, and normal human cells used as a control (e.g., normal human BJ cells) are prepared using standard methods and materials. In one test, the colonies are prepared by seeding 15-centimeter dishes with about 10^6 cells in each dish. The dishes are incubated to allow the cell colonies to grow to about 80% confluence, at which time each of the colonies are divided into two groups. One group is exposed to a subacute dose of a compound of the invention at a predetermined concentration (e.g., between about 5 μM and about 20 μM) for a period of about 4-8 hours after plating following the split; the other group is exposed to a control (e.g., DMSO).
Each group is then allowed to continue to divide, and the groups are split evenly again (near confluence). The same number of cells are seeded for continued growth. The compound or control is added every fourth day to the samples at the same concentration delivered initially. Remaining cells are analyzed for telomere length. As the untested cell cultures near confluence, the samples are split again as just described. […]
Telomere length is determined by digesting the DNA of the cells using restriction enzymes specific for sequences other than the repetitive T2 AG3 sequence of human telomeres. […]

[2] = Half-life of Compound XIV; type: in vitro ADME; settings: additional data suggest; on the order of about
[3] = Table 3, only approximate values
[4] = approximate IC50 values, summary of the table

T1 sequence (O14746 whole entry): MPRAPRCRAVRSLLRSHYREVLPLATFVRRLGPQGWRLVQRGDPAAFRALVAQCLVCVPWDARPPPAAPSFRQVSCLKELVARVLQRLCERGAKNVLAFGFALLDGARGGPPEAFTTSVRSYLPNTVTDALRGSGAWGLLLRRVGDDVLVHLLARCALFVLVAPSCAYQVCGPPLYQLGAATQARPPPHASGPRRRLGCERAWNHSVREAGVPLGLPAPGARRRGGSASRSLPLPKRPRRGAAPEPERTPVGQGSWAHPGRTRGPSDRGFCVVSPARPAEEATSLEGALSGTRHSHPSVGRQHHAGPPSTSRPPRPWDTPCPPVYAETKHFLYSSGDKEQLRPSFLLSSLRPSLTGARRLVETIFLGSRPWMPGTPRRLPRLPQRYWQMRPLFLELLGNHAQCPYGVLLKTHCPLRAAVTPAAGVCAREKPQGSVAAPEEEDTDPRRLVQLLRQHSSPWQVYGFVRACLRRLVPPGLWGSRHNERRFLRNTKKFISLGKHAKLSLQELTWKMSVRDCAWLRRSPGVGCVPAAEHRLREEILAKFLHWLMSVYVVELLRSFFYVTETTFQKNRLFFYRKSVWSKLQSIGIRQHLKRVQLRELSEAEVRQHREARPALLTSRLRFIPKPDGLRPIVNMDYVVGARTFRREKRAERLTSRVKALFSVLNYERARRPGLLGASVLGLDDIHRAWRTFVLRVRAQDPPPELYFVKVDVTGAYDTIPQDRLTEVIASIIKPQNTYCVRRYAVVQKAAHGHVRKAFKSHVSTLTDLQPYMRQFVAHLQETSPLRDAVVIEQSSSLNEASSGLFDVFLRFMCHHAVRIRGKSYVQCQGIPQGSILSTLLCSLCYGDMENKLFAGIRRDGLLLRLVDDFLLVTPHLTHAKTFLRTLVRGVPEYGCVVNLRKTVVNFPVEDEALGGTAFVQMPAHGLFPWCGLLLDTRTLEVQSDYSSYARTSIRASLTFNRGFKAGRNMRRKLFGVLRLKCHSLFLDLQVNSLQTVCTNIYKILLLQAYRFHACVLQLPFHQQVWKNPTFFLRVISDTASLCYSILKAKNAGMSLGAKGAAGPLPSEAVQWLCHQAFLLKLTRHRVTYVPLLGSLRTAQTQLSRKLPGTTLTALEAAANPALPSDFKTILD
T1 sequence (O60832 whole entry partner): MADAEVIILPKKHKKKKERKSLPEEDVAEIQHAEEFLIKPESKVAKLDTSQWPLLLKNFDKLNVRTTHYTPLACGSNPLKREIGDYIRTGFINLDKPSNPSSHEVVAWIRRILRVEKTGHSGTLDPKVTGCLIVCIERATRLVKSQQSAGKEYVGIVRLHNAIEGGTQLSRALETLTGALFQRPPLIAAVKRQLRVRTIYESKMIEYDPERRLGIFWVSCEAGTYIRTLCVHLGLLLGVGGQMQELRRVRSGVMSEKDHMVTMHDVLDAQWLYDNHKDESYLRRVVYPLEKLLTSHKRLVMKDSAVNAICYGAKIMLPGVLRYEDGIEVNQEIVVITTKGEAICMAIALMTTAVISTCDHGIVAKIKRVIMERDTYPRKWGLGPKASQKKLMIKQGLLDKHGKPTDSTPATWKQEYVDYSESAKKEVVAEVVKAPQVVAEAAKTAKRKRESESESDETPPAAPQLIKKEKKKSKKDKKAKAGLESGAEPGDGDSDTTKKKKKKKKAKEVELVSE
T1 sequence (Q9NPE3 whole entry partner): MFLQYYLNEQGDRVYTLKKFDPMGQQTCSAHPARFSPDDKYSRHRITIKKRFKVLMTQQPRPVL
T1 sequence (Q9NX24 whole entry partner): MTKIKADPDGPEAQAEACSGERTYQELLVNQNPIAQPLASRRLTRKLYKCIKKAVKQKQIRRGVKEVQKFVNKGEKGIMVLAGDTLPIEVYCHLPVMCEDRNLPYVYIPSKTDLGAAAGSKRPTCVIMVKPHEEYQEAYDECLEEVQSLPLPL
T1 sequence (Q9NY12 whole entry partner): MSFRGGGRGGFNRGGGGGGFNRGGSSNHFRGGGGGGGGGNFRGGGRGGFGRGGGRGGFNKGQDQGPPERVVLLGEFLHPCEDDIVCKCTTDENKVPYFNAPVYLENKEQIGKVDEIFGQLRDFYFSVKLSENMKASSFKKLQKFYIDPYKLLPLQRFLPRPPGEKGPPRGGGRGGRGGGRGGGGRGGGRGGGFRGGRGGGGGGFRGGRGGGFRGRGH

| SMILES | IC50 (telomerase; [3]) [µM] | also measured |
| --- | --- | --- |
| Cc1cccnc1N=Cc1ccc(C#N)c(SCc2cc(Cl)cc(Cl)c2)n1 [Compound XXXVII] |  | IC50 (telomerase; [4]): < 5 µM |
| N#Cc1ccc(C=Nc2ccc3c(c2)OCCO3)nc1SCc1ccc(Cl)c(Cl)c1 [VIII] | 10 |  |
| N#Cc1ccc(C=Nc2ccc(F)c(F)c2)nc1SCc1ccc(Cl)c(Cl)c1 [VI] | 10 |  |
| N#Cc1ccc(C=NNc2ccc(Cl)cc2)nc1SCc1ccc(Cl)c(Cl)c1 [Compound LV] | 19.2 |  |
| Cc1ccc(NN=Cc2ccc(C#N)c(SCc3ccc(Cl)c(Cl)c3)n2)cc1 [Compound LIV] | 17 |  |
| N#Cc1ccc(C=Nc2ccc(Cl)cc2)nc1SCc1ccc(Cl)c(Cl)c1 [III] | 6.5 |  |
| Cc1ccnc(N=Cc2ccc(C#N)c(SCc3ccc(Cl)c(Cl)c3)n2)c1 [Compound XV] | 8 |  |
| N#Cc1ccc(C=Nc2ccc3c(c2)C(=O)N(Cc2ccccc2)C3=O)nc1SCc1ccc(Cl)c(Cl)c1 [IX] | 8 |  |
| Cc1nc(N=Cc2ccc(C#N)c(SCc3ccc(Cl)c(Cl)c3)n2)ccc1Br [XII] | 7 |  |
| Cc1cccnc1N=Cc1ccc(C#N)c(SCc2ccc(C(F)(F)F)cc2C(F)(F)F)n1 [Compound XXVII] | 5 |  |
| Cc1ccc(NC(=S)NN=Cc2ccc(C#N)c(SCc3ccc(Cl)c(Cl)c3)n2)cc1 [Compound LVI] | 18 |  |
| N#Cc1ccc(C=Nc2ccc(Br)c(C(F)(F)F)c2)nc1SCc1ccc(Cl)c(Cl)c1 [VII] | 12 |  |
| Cc1cccnc1N=Cc1ccc(C#N)c(SCc2ccc(C=Cc3ccccc3)cc2)n1 [Compound XX] | 8 |  |
| N#Cc1ccc(N=Cc2ccc(C#N)c(SCc3ccc(Cl)c(Cl)c3)n2)cc1Cl [V] | 10 |  |
| COc1ccc(N=Cc2ccc(C#N)c(SCc3ccc(Cl)s3)n2)nc1 [Compound LIII] | 5 | IC50 (telomerase; [4]): < 5 µM |
| N#Cc1ccc(C=NNC(=S)Nc2ccc(F)cc2)nc1SCc1ccc(Cl)c(Cl)c1 [Compound LVII] | 18 |  |
| Cc1ccc(N=Cc2ccc(C#N)c(SCc3ccc(Cl)c(Cl)c3)n2)nc1 [XIII] | 7 |  |
| COc1ccc(N=Cc2ccc(C#N)c(SCc3ccc(Cl)c(Cl)c3)n2)cc1 [IV] | 4.9 | IC50 (telomerase; [4]): < 5 µM |
| CCN1C(=O)c2ccc(N=Cc3ccc(C#N)c(SCc4ccc(Cl)c(Cl)c4)n3)cc2C1=O [Compound X] | 9 |  |

More lines, main results first:

| IC50 (telomerase; [3]) [µM] | SMILES | also measured |
| --- | --- | --- |
| < 3.2 | Cc1cccnc1N=Cc1ccc(C#N)c(SCc2ccc3c(c2)C(C)(C)CCC3(C)C)n1 [Compound XLIII] | IC50 (telomerase; [4]): < 5 µM |
| < 3.2 | Cc1cccnc1N=Cc1ccc(C#N)c(SCc2ccc(Cl)c(Cl)c2)n1 [Compound XIV] | shorting of telomere length [1]: No significant shorting of telomere length was observed; half-life [2]: ~12 h; IC50 (telomerase; [4]): < 5 µM |
| 2 | Cc1cccnc1N=Cc1ccc(C#N)c(SCc2ccccc2Br)n1 [Compound XXIII] |  |
| 2 | Cc1cccnc1N=Cc1ccc(C#N)c(SCc2cccc(Cl)c2F)n1 [XXVIII] |  |
| 3 | Cc1cccnc1N=Cc1ccc(C#N)c(SCc2ccccc2C(F)(F)F)n1 [Compound XIX] |  |
| 1 | Cc1cccnc1N=Cc1ccc(C#N)c(SCc2c(Cl)cccc2Cl)n1 [Compound XVI] |  |
| 2 | Cc1cccnc1N=Cc1ccc(C#N)c(SCc2ccc(-c3ccccc3)cc2)n1 [Compound XXII] |  |
| < 3.2 | Cc1cccnc1N=Cc1ccc(C#N)c(SCC#CCSc2nc(C=Nc3ncccc3C)ccc2C#N)n1 [LXI] | IC50 (telomerase; [4]): < 5 µM |
| < 3.2 | Cc1ccc(CSc2nc(C=Nc3ncccc3C)ccc2C#N)c(C)c1 [Compound XXXI] |  |
| 0.9 | Cc1ccc(C)c(CSc2nc(C=Nc3ncccc3C)ccc2C#N)c1 [Compound XXVI] |  |
| 2 | Cc1cc(C)cc(CSc2nc(C=Nc3ncccc3C)ccc2C#N)c1 [Compound XXIX] |  |
| 4 | Cc1cccnc1N=Cc1ccc(C#N)c(SCc2cc(Cl)cc3c2OCOC3)n1 [Compound XXV] |  |
| 2 | Cc1cccnc1N=Cc1ccc(C#N)c(SCc2ccc(C(C)(C)C)cc2)n1 [Compound XXX] |  |
| < 3.2 | N#Cc1ccc(C=Nc2ccc(Br)cn2)nc1SCc1ccc(Cl)s1 [Compound LII] | IC50 (telomerase; [4]): < 5 µM |
| 2 | Cc1cccnc1N=Cc1ccc(C#N)c(SCc2ccccc2-c2ccccc2)n1 [Compound XVIII] |  |
| < 3.2 | Cc1cccnc1N=Cc1ccc(C#N)c(SCc2cc(Cl)cc(Cl)c2)n1 [Compound XXXII] |  |
| 3 | Cc1ccccc1CSc1nc(C=Nc2ncccc2C)ccc1C#N [Compound XXIV] |  |
| 2 | Cc1cccnc1N=Cc1ccc(C#N)c(SCc2ccc(C(C)C)cc2)n1 [Compound XXI] |  |
| 2 | Cc1cccnc1N=Cc1ccc(C#N)c(SCc2cc(C(F)(F)F)cc(C(F)(F)F)c2)n1 [Compound XVII] |  |
| < 3.2 | Cc1cccnc1N=Cc1ccc(C#N)c(SCc2csc3ccc(Cl)cc23)n1 [Compound XLVII] | IC50 (telomerase; [4]): < 5 µM |
